Assay results reported in patent publication US10800789B2, “Antiviral compounds” (Gilead Pharmasset LLC, priority 2012, dated 2020).
Like-named read-outs stand apart in the source and are kept apart here.

Columns and labels:
[1] = tested on: stable HCV 1b RLuc replicon cells (dicistronic genotype 1b Con1 replicon); assay: Renilla luciferase HCV replicon reporter assay, genotype 1b; format: cell-based; conditions: Hepatitis C virus, 72 h
Procedure, shortened: (§1)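 First, 3-fold serial dilutions of compound went onto replicon cells, DMSO serving as no-inhibition control and ITMN-191 at >100×EC50 as positive control. Next came 72 h incubation, lysis and Renilla luciferase measurement. Finally, EC50 was calculated by non-linear regression; replicons covered genotypes 1a H77, 1b Con1, 2a JFH-1 (L31) and J6-NS5A chimera (M31).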

[2] = tested on: stable HCV 1a RLuc replicon cells (dicistronic genotype 1a H77 replicon); assay: Renilla luciferase HCV replicon reporter assay, genotype 1a; format: cell-based; conditions: Hepatitis C virus, 72 h, stable 1a H77 RLuc replicon cells
Procedure, shortened: as §1

[3] = tested on: Q30R in genotype 1a NS5A (1a Pi-Rluc replicon, Huh-7-derived cured-51 cells); assay: Replicon assay against resistance mutant 1a Q30R; format: cell-based, HCV; conditions: Hepatitis C virus
Procedure, shortened: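 Q30R introduced by site-directed mutagenesis into the 1a Pi-RLuc replicon; replicon RNA transiently transfected into cured-51 cells. Cells treated with 3-fold serially diluted compound for 72 h, then lysed and Renilla luciferase measured; EC50 by non-linear regression.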

[4] = tested on: stable HCV 2a JFH-1 Rluc replicon cells (L31 present in NS5A); assay: Renilla luciferase HCV replicon reporter assay, genotype 2a JFH-1; format: cell-based
Procedure, shortened: as §1

[5] = tested on: NS5A chimeric genotype 2a JFH-1 replicon with genotype 2a J6 strain NS5A gene (M31 present); assay: Replicon assay, genotype 2a J6 NS5A chimera; format: cell-based, HCV
Procedure, shortened: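 72 h compound exposure (3-fold dilutions from 10 mM DMSO stocks) of replicon cells: stable dicistronic RLuc 1a H77, 1b Con1, 2a JFH-1 (NS5A L31); J6-NS5A chimera in JFH-1 (M31), transient in Huh-Lunet or stable. Renilla luciferase read-out, non-linear regression → EC50. DMSO negative control.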

[6] = tested on: NS5A chimeric genotype 2a JFH-1 replicon with genotype 2b MD2b-1 strain NS5A gene (M31 present); assay: Replicon assay, genotype 2b NS5A chimera; format: cell-based, HCV
Procedure, shortened: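 EC50 was fitted by non-linear regression to Renilla luciferase signal after 72 h of exposure to 3-fold serially diluted compound (10 mM DMSO stocks). Controls were DMSO (none) and ITMN-191 above 100×EC50 (full). Chimeric 2a replicons were used either stable or transiently transfected into Huh-Lunet cells.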

[7] = tested on: NS5A chimeric genotype 1b Con1 replicon with genotype 3a S52 strain NS5A gene; assay: Replicon assay, genotype 3a NS5A chimera; format: cell-based, HCV
[8] = tested on: NS5A chimeric genotype 1b Con1 replicon with genotype 4a ED43 strain NS5A gene; assay: Replicon assay, genotype 4a NS5A chimera; format: cell-based, HCV; conditions: Hepatitis C virus
[9] = IV and PO single dose pharmacokinetic studies in SD rats; format: in vivo, male Sprague-Dawley (SD) rats; conditions: male SD rats, PO 2 mg/kg vs IV infusion 1 mg/kg; for bioavailability: Sprague-Dawley, rat, plasma, read-out: Rat % F
Procedure, shortened: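 Fasted male Sprague-Dawley rats (250-300g, n=3/group) were given 1 mg/kg IV as a 30-min jugular infusion (5% ethanol/35% PEG 400/water pH 2.0) or 2 mg/kg by oral gavage (5% ethanol/55% PEG 400/citrate pH 2.2). Plasma was sampled to 24 h and analysed by LC/MS/MS. Non-compartmental parameters were derived, and %F was calculated from the oral/IV AUC ratio.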

[10] = Hepatitis C virus, read-out: 2a JFH (nM), genotype 2a JFH-1 replicon (L31 in NS5A), stable cells
[11] = Hepatitis C virus, read-out: 2a JFH, stable 2a JFH-1 Rluc replicon cells, L31 in NS5A, activity range
[12] = Hepatitis C virus, read-out: 2a J6 (t) (nM), genotype 2a J6 NS5A chimeric replicon (M31), transiently transfected (t) into Huh-Lunet cells
[13] = Hepatitis C virus, read-out: 2a J6 (t), transiently transfected (t) into Huh-Lunet cells, activity range
[14] = Hepatitis C virus, 2BS, read-out: 2b (s), stably replicating replicon cells (s), activity range
[15] = Hepatitis C virus, read-out: 2b (s) (nM), genotype 2b MD2b-1 NS5A chimeric replicon (M31), stably replicating replicon cells (s)
[16] = Hepatitis C virus, read-out: 2b (t) (nM), genotype 2b MD2b-1 NS5A chimeric replicon (M31), transiently transfected (t)
[17] = Hepatitis C virus, read-out: 2b (t), transiently transfected (t) into Huh-Lunet cells, activity range
[18] = Hepatitis C virus, read-out: 3a (s) (nM), genotype 3a NS5A chimeric replicon, stable replicon cells (s)
[19] = Hepatitis C virus, read-out: 3a (s), (s), activity range
[20] = read-out: 4a (s) (nM), genotype 4a NS5A chimeric replicon, stable replicon cells (s)
[21] = read-out: 4a (s), (s), activity range
[22] = stable 1b Con1 RLuc replicon cells, 72 hours, read-out: 1b
[23] = Hepatitis C virus, read-out: 3a (t) (nM), genotype 3a NS5A chimeric replicon, transiently transfected (t)
[24] = Hepatitis C virus, read-out: 3a (t), transiently transfected (t) into Huh-Lunet cells, activity range

SMILES | EC50 [2] [nM] | EC50 ([2]; activity range) [nM] | EC50 ([3]; read-out: 1a Q30R) [nM] | EC50 ([3]; read-out: 1a Q30R (nM)) [nM] | EC50 [4, 10] [nM] | EC50 [4, 11] [nM] | EC50 [5, 12] [nM] | EC50 [5, 13] [nM] | EC50 [6, 14] [nM] | EC50 [6, 15] [nM] | EC50 [6, 16] [nM] | EC50 [6, 17] [nM] | EC50 [7, 18] [nM] | EC50 [7, 19] [nM] | EC50 [8, 20] [nM] | EC50 [8, 21] [nM] | EC50 [1, 22] [nM] | EC50 [7, 23] [nM] | EC50 [7, 24] [nM] | bioavailability [9] [%] | also measured
COC(=O)N[C@H](C(=O)N1[C@@H](C)CC[C@H]1c1ncc(-c2ccc3c(c2)COc2cc4c(ccc5nc([C@@H]6CC[C@H](C)N6C(=O)[C@@H](NC(=O)OC)C6CCOCC6)[nH]c54)cc2-3)[nH]1)C(C)C [FC, Methyl [(1 S)-2-[(2S,5S)-2-(9-{2-[(2S,5S)-1-{(2S)-2-[(methoxycarbonyl)amino]-3-methylbutanoyl}-5-methylpyrrolidin-2-yl]-1H-imidazol-5-yl}-1,11-dihydroisochromeno[4′,3′:6,7]naphtho[1,2-d]imidazol-2-yl)-5-methylpyrrolidin-1-yl]-2-oxo-1-(tetrahydro-2H-pyran-4-yl)ethyl]carbamate] | 0.014 | < 0.1 | < 0.1 | 0.031 | 0.011 | < 0.1 | 0.015 | < 0.1 | < 0.1 | 0.048 | 0.024 | < 0.1 | 0.031 | < 0.1 | 0.011 | < 0.1 |  |  |  |  | EC50 ([1]; read-out: 1b (nM), stable 1b Con1 RLuc replicon cells, 72 hours): 0.021 nM; Rat % F ([9]; oral bioavailability): 0%
CC[C@H](C)C(NC(=O)OC)C(=O)N1[C@@H](C)CC[C@H]1c1nc2ccc3cc4c(cc3c2[nH]1)OCc1cc(-c2cnc([C@@H]3CC[C@H](C)N3C(=O)[C@@H](NC(=O)OC)[C@@H](C)OC)[nH]2)ccc1-4 (stereo partly drawn) [EH, methyl{(3S)-1-[(2S,5S)-2-(9-{2-[(2S,5S)-1-{(2S,3R)-3-methoxy-2-[(methoxycarbonyl)amino]butanoyl}-5-methylpyrrolidin-2-yl]-1H-imidazol-5-yl}-1,11-dihydroisochromeno[4′,3′:6,7]naphtho[1,2-d]imidazol-2-yl)-5-methylpyrrolidin-1-yl]-3-methyl-1-oxopentan-2-yl}carbamate] | 0.011 | < 0.1 | < 0.1 | 0.082 | 0.013 | < 0.1 | 0.086 | < 0.1 | 0.1 to 0.999 | 0.153 |  |  | 0.022 | < 0.1 | 0.006 | < 0.1 | 0.015 | 0.024 | < 0.1 | 15.8 | 
COC[C@H]1C[C@@H](c2nc(Cl)c(-c3ccc4c(c3)COc3cc5c(ccc6nc([C@@H]7CC[C@H](C)N7C(=O)[C@@H](NC(=O)OC)C(C)C)[nH]c65)cc3-4)[nH]2)N(C(=O)[C@H](NC(=O)OC)c2ccccc2)C1 [FY, Methyl {(1R)-2-[(2S,4S)-2-(4-chloro-5-{2-[(2S,5S)-1-{(2S)-2-[(methoxycarbonyl)amino]-3-methylbutanoyl}-5-methylpyrrolidin-2-yl]-1,11-dihydroisochromeno[4′,3′:6,7]naphtho[1,2-d]imidazol-9-yl}-1H-imidazol-2-yl)-4-(methoxymethyl)pyrrolidin-1-yl]-2-oxo-1-phenylethyl}carbamate] | 0.01 | < 0.1 | < 0.1 | 0.017 | 0.007 | < 0.1 | 0.005 | < 0.1 | < 0.1 | 0.034 |  |  | 0.029 | < 0.1 | 0.005 | < 0.1 | 0.017 |  |  | 13.5 | 
CC[C@H]1CC[C@@H](c2ncc(-c3ccc4c(c3)COc3cc5c(ccc6nc([C@@H]7CC[C@H](C)N7C(=O)[C@@H](NC(=O)OC)C(C)C)[nH]c65)cc3-4)[nH]2)N1C(=O)[C@@H](NC(=O)OC)C1CCOCC1 [HQ] | 0.022 | < 0.1 | < 0.1 | 0.031 | 0.024 | < 0.1 | 0.088 | < 0.1 | 0.1 to 0.999 | 0.233 | 0.079 | < 0.1 | 0.076 | < 0.1 | 0.02 | < 0.1 | 0.027 | 0.049 | < 0.1 | 34.3 | 
COC[C@H]1C[C@@H](c2nc(C3CC3)c(-c3ccc4c(c3)COc3cc5c(ccc6nc([C@@H]7CC[C@H](C)N7C(=O)[C@@H](NC(=O)OC)C(C)C)[nH]c65)cc3-4)[nH]2)N(C(=O)[C@H](NC(=O)OC)c2ccccc2)C1 [FZ, Methyl {(1R)-2-[(2S,4S)-2-(4-cyclopropyl-5-{2-[(2S,5S)-1-{(2S)-2-[(methoxycarbonyl)amino]-3-methylbutanoyl}-5-methylpyrrolidin-2-yl]-1,11-dihydroisochromeno[4′,3′:6,7]naphtho[1,2-d]imidazol-9-yl}-1H-imidazol-2-yl)-4-(methoxymethyl)pyrrolidin-1-yl]-2-oxo-1-phenylethyl}carbamate] | 0.019 | < 0.1 | < 0.1 | 0.048 |  | < 0.1 |  |  |  |  |  |  |  |  | 0.025 | < 0.1 | 0.031 |  |  | 18.5 | EC50 ([4]; read-out: 2a JFH, genotype 2a JFH-1 replicon (L31 in NS5A), stable cells): 0.025 nM; EC50 ([5]; read-out: 2a J6 (t), genotype 2a J6 NS5A chimeric replicon (M31), transiently transfected (t) into Huh-Lunet cells): 0.041 nM; EC50 ([5]; read-out: 2a J6 (t), transiently transfected (t) into Huh-Lunet cells, activity range): < 0.1 nM; EC50 ([6]; read-out: 2b (s), genotype 2b MD2b-1 NS5A chimeric replicon (M31), stably replicating replicon cells (s)): 0.101 nM; EC50 ([6]; read-out: 2b (s), stably replicating replicon cells (s), activity range): 0.1 to 0.999 nM; EC50 ([7]; read-out: 3a (s), (s), activity range): < 0.1 nM; EC50 ([7]; read-out: 3a (s), genotype 3a NS5A chimeric replicon, stable replicon cells (s)): 0.098 nM
